Experimental findings from EP4603105A1, “PHARMACEUTICAL COMPOSITION CONTAINING CYCLIC COMPOUND HAVING SELECTIVE KRAS INHIBITORY EFFECT AGAINST HRAS AND NRAS” (CHUGAI SEIYAKU KABUSHIKI KAISHA, priority 2022, dated 2024) are described below.

The target in assay [1] is GDP-bound NRAS wild-type protein (Homo sapiens, UniProt P01111). In words: Binding to NRAS by surface plasmon resonance (SPR), KD and KD ratio to KRAS. Put shortly:
(§1)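 Each cycle, GDP-bound biotin-Avi RAS was captured (~100–300 RU), compound concentrations were injected low to high for 75 s each at 100 µL/min, then the chip was regenerated. Buffer: HBS pH 7.4, 10 mM MgCl2, 10 µM GDP, 1 mM DTT, 4% DMSO; 30°C. KD from a 1:1 binding model.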
In general terms: SPR reads the build-up and loss of mass on a sensor chip optically.

The target of assay [2] is HRAS wild-type protein (Homo sapiens, UniProt P01112). As to the kind of experiment: Binding to HRAS by surface plasmon resonance (SPR), KD and KD ratio to KRAS. Put shortly: as §1
Sequence of HRAS wild-type protein (P01112 whole entry): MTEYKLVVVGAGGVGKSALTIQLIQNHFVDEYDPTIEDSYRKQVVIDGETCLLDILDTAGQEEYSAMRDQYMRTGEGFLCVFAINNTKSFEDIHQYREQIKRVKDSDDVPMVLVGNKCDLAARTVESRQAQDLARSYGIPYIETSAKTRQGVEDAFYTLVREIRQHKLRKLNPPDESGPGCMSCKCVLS
Assay [3] relates to human lung cancer strain NCI-H441. Type of assay: cell-based. Summed up: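 Signal came from […] measured per well once the reagent was added. Beforehand, cells were cultured at 37°C and 5% carbon dioxide on a compound series serially diluted in dimethyl sulfoxide.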
Setting [4] is: ratio of KD for GDP-bound NRAS wild-type protein to KD for KRAS.
Where [5] appears, read: ratio of KD for HRAS wild-type protein to KD for KRAS.
Where [6] appears, read: ratio of the KD value with respect to GDP-bound NRAS wild-type protein to the KD value with respect to KRAS.
Where [7] appears, read: ratio of the KD value with respect to HRAS wild-type protein to the KD value with respect to KRAS.

*1 amine or outer side, *2 acyl side, *3 side chain or, on linkers, in order; H or OH if unused. Where a SMILES comes first, the peptide text is derived from it. Bridges are numbered along the chain shown (N, C = ends). [ ]: non-standard residue; d: D form. The star is where a group is joined. X25 = O=C([C@H](Cc1ccc(C(F)(F)F)cc1)N(CCC(F)(F)F)[*:1])[*:2]; hPhe(3-Cl-4-CF3) = N[C@@H](CCc1ccc(C(F)(F)F)c(Cl)c1)C(=O)O; X33 = O=C([C@H](Cc1ccc(C(F)(F)F)cc1)N(CC1CC1)[*:1])[*:2]; NPrPhe(4-CF3) = CCCN[C@@H](Cc1ccc(C(F)(F)F)cc1)C(=O)O; NMeGly(cPent) = CN[C@H](C(=O)O)C1CCCC1; Pro(4,4-F2) = O=C(O)[C@@H]1CC(F)(F)CN1; NEtPhe = CCN[C@@H](Cc1ccccc1)C(=O)O; NMeD = CN[C@@H](CC(=O)O)C(=O)O; NMeL = CN[C@@H](CC(C)C)C(=O)O; Morpholide = C1CN(*)CCO1; Ac5c = NC1(C(=O)O)CCCC1; Aze = O=C(O)[C@@H]1CCN1; Sar = CNCC(=O)O

Sequence of GDP-bound NRAS wild-type protein (P01111 whole entry): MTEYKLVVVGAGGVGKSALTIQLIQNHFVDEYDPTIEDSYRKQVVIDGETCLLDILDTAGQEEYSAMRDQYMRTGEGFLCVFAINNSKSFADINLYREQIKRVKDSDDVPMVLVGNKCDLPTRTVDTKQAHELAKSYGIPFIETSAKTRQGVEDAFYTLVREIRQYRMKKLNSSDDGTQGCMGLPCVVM

One may read the IC50 as the concentration at which inhibition is half-maximal. Higher therefore signals weaker potency in that assay. As to `CCO[C@@H]1C[C@H]2C(=O)NC3(CCC3)C(=O)N(C)[C@@H](C3CCCC3)C(=O)N(C)[C@H](C(=O)N(C)C)CC(=O)N(C)[C@@H](C)C(=O)N[C@@H]([C@@H](C)CC)C(=O)N(C)CC(=O)N(C)[C@H]3C/C=C\CCN(C3=O)[C@@H](Cc3ccc(C(F)(F)F)cc3)C(=O)N(C)CC(=O)N[C@@H](CCc3cc(F)c(C(F)(F)F)c(F)c3)C(=O)N2C1` [PP1108], the “NRAS /KRAS” value in assay [1] (setting [4]) was “A (a compound having 10 or more and less than 20 is denoted as A)”. For the same compound, in assay [2] (setting [5]), the “HRAS /KRAS” value is “A (a compound having 10 or more and less than 20 is denoted as A)”. Also, the IC50 in assay [3] worked out at 28.3 nM.
With `CCCN1C(=O)CN(C)C(=O)[C@@H]2CCN2C(=O)[C@H]([C@@H](C)CC)NC(=O)[C@H](CC(C)C)N(C)C(=O)C[C@@H](C(=O)N2CCOCC2)NC(=O)[C@H](C2CCCC2)N(C)C(=O)C2(CCCC2)NC(=O)[C@@H]2CC(F)(F)CN2C(=O)[C@H](CCc2ccc(C(F)(F)F)c(Cl)c2)NC(=O)CN(C)C(=O)[C@@H]1Cc1ccc(C(F)(F)F)cc1` [PP0339] ([NMeL]I[Aze][Sar][NPrPhe(4-CF3)][Sar][hPhe(3-Cl-4-CF3)][Pro(4,4-F2)][Ac5c][NMeGly(cPent)]D-Morpholide; lactam N-11), the “NRAS /KRAS” value in assay [1] (setting [4]) is “B (a compound having 3 or more and less than 10 is denoted as B)”. Besides, the “HRAS /KRAS” value in assay [2] (setting [5]) is “B (a compound having 3 or more and less than 10 is denoted as B)”. Also, the IC50 in assay [3] was found to be 158 nM.
With `CCCOC[C@H]1C(=O)N[C@@H]([C@@H](C)CC)C(=O)N(C)CC(=O)N(C)[C@H]2C/C=C\CCN(C2=O)[C@@H](Cc2ccc(C)cc2)C(=O)N(C)CC(=O)N[C@@H](CCc2cc(F)c(C(F)(F)F)c(F)c2)C(=O)N2C[C@H](CCC)C[C@H]2C(=O)NC2(CCCC2)C(=O)N(C)[C@@H](C2CCCC2)C(=O)N(C)[C@H](C(=O)N(C)C)CC(=O)N1C` [PP2229], the “NRAS /KRAS” value in assay [1] (setting [6]) was “A (a compound having 10 or more and less than 20 is denoted as A)”. Moreover, the “HRAS /KRAS” value in assay [2] (setting [7]) was “A (a compound having 10 or more and less than 20 is denoted as A)”. In assay [3], this compound registered an IC50 of 39.8 nM.
Take `CC[C@H](C)[C@@H]1NC(=O)[C@H](CC(C)C)N(C)C(=O)C[C@@H](C(=O)N2CCOCC2)N(C)C(=O)[C@H](C2CCCC2)N(C)C(=O)C2(CCCC2)NC(=O)[C@@H]2CCCN2C(=O)[C@H](CCc2ccc(C(F)(F)F)c(Cl)c2)NC(=O)CN(C)C(=O)[C@H](Cc2ccccc2)N(CC)C(=O)CN(C)C(=O)CN(C)C1=O` [PP0210] ([NMeL]I[Sar][Sar][NEtPhe][Sar][hPhe(3-Cl-4-CF3)]P[Ac5c][NMeGly(cPent)][NMeD]-Morpholide; lactam N-11): the “NRAS /KRAS” value in assay [1] (setting [4]) is “C (A compound having a KD ratio of 0.1 or more and less than 3 is denoted as C)”. Further, the “HRAS /KRAS” value in assay [2] (setting [5]) was “C (A compound having a KD ratio of 0.1 or more and less than 3 is denoted as C)”. Also, in assay [3], the IC50 was 17.1 nM.
On to `CCC[C@H]1C(=O)N[C@@H]([C@@H](C)CC)C(=O)N(C)CC(=O)N(C)[C@H]2C/C=C\CCN(C2=O)[C@@H](Cc2ccc(C)cc2)C(=O)N(C)CC(=O)N[C@@H](CCc2cc(F)c(C(F)(F)F)c(F)c2)C(=O)N2C[C@H](OCC)C[C@H]2C(=O)NC2(CC(C)(C)C2)C(=O)N(C)[C@@H](CC(F)(F)F)C(=O)N(C)[C@H](C(=O)N(C)C)CC(=O)N1C` [PP2993], for which, in assay [1] (setting [4]), the “NRAS /KRAS” value was “A (a compound having 10 or more and less than 20 is denoted as A)”. In addition, the “HRAS /KRAS” value in assay [2] (setting [5]) is “A (a compound having 10 or more and less than 20 is denoted as A)”. Half-maximal inhibition in assay [3] (IC50) required 14.1 nM.
In the case of `CC[C@H](C)[C@@H]1NC(=O)[C@H](CC(C)C)N(C)C(=O)C[C@@H](C(=O)N2CCOCC2)N(CC)C(=O)[C@H](C2CCCC2)N(C)C(=O)C2(CCC2)NC(=O)[C@@H]2[C@H](O)CCN2C(=O)[C@H](CCc2cc(F)c(C(F)(F)F)c(F)c2)NC(=O)CN(C)C(=O)[C@H](Cc2ccc(C(F)(F)F)cc2)N2CCCCC[C@@H](C2=O)N(C)C(=O)CN(C)C1=O` [PP0955], the “NRAS /KRAS” value in assay [1] (setting [4]) is “A (a compound having 10 or more and less than 20 is denoted as A)”. Moreover, in assay [2] (setting [5]), the “HRAS /KRAS” value is “A (a compound having 10 or more and less than 20 is denoted as A)”. In addition, the IC50 in assay [3] is 6480 nM.
Take `CC[C@H](C)[C@@H]1NC(=O)[C@H](CC(C)C)N(C)C(=O)C[C@@H](C(=O)N2CCOCC2)N(C)C(=O)[C@H](C2CCCC2)N(C)C(=O)C2(CCC2)NC(=O)[C@@H]2CC(F)(F)CN2C(=O)[C@H](CCc2cc(F)c(C(F)(F)F)c(F)c2)NC(=O)CN(C)C(=O)[C@H](Cc2ccc(C(F)(F)F)cc2)N2CCCC[C@@H](C2=O)N(C)C(=O)CN(C)C1=O` [PP0575]: the “NRAS /KRAS” value in assay [1] (setting [6]) is “B (a compound having 3 or more and less than 10 is denoted as B)”. Further, in assay [2] (setting [7]), the “HRAS /KRAS” value was “B (a compound having 3 or more and less than 10 is denoted as B)”. In assay [3], the midpoint of inhibition, the IC50, lay at 3.2 nM.
Consider `CC[C@H](C)[C@@H]1NC(=O)[C@H](CC(C)C)N(C)C(=O)C[C@@H](C(=O)N2CCOCC2)N(C)C(=O)[C@H](C2CCCC2)N(C)C(=O)C2(CCCC2)NC(=O)[C@@H]2CCCN2C(=O)[C@H](CCc2ccc(C(F)(F)F)c(Cl)c2)NC(=O)CN(C)C(=O)[C@H](Cc2ccc(C(F)(F)F)cc2)N(CC2CC2)C(=O)CN(C)C(=O)CN(C)C1=O` [PP0122] ([NMeL]I[Sar][Sar][X33][Sar][hPhe(3-Cl-4-CF3)]P[Ac5c][NMeGly(cPent)][NMeD]-Morpholide; lactam N-11), for which, in assay [1] (setting [4]), the “NRAS /KRAS” value was “C (A compound having a KD ratio of 0.1 or more and less than 3 is denoted as C)”. Also, in assay [2] (setting [5]), the “HRAS /KRAS” value was “C (A compound having a KD ratio of 0.1 or more and less than 3 is denoted as C)”. Half-maximal inhibition in assay [3] (IC50) was put at 12 nM.
For the compound `CC[C@H](C)[C@@H]1NC(=O)[C@H](CC(C)C)N(C)C(=O)C[C@@H](C(=O)N2CCOCC2)N(C)C(=O)[C@H](C2CCCC2)N(C)C(=O)C2(CCCC2)NC(=O)[C@@H]2CCCN2C(=O)[C@H](CCc2ccc(C(F)(F)F)c(Cl)c2)NC(=O)CN(C)C(=O)[C@H](Cc2ccc(C(F)(F)F)cc2)N(CCC(F)(F)F)C(=O)CN(C)C(=O)CN(C)C1=O` [PP0131] ([NMeL]I[Sar][Sar][X25][Sar][hPhe(3-Cl-4-CF3)]P[Ac5c][NMeGly(cPent)][NMeD]-Morpholide; lactam N-11), in assay [1] (setting [4]), the “NRAS /KRAS” value was “B (a compound having 3 or more and less than 10 is denoted as B)”. For the same compound, in assay [2] (setting [5]), the “HRAS /KRAS” value was “C (A compound having a KD ratio of 0.1 or more and less than 3 is denoted as C)”. In assay [3], the IC50 was 11.1 nM.
Turning to `CCO[C@@H]1C[C@H]2C(=O)NC3(CCC3)C(=O)N(C)[C@@H](C3CCCC3)C(=O)N(C)[C@H](C(=O)N(C)C)CC(=O)N(C)[C@@H](CC3CCCCC3)C(=O)N[C@@H]([C@@H](C)CC)C(=O)N(C)CC(=O)N(C)[C@H]3C/C=C\CCN(C3=O)[C@@H](Cc3ccc(C(F)(F)F)cc3)C(=O)N(C)CC(=O)N[C@@H](CCc3cc(F)c(C(F)(F)F)c(F)c3)C(=O)N2C1` [PP1125], the “NRAS /KRAS” value in assay [1] (setting [4]) was “A (a compound having 10 or more and less than 20 is denoted as A)”. In addition, the “HRAS /KRAS” value in assay [2] (setting [5]) was “A (a compound having 10 or more and less than 20 is denoted as A)”. Moreover, in assay [3], the IC50 was determined as 15 nM.
